Data as given in US20170216360A1, “METHODS AND COMPOSITIONS FOR IMPROVING HOMING OF CELLS INCLUDING MESENCHYMAL STEM CELLS” (SANOFI, priority 2014, published 2017).
“Also recorded” adds a separate entry of the source. Structures can show the parent of a compound that is named as a salt. Where two headings read alike, the source gives them in different places.

Legend:
[1] = test system: CD11a surface expression on huMSCs; test: Medium throughput screen: CD11a surface expression on MSCs, PE-CY5 anti-CD11a antibody, laser-scanning fluorescence microplate cytometer; assay type: cell-based, human; parameters: key to Cell surface ligand CD11a (induction of expression): NA = negative activity result; A = positive activity result; settings: pretreatment of huMSCs; for EC50: read-out: Cell Surface Marker ED 50 (M) Molar Concentration of Compound for CD11a Expression
Experimental: An in vitro screen was performed for compounds that induce surface expression on huMSCs of the marker CD11a (LFA-1). This screen may be considered a medium throughput screen. Certain compounds that induce the increase of this surface marker were then selected for testing in an in vitro firm adhesion assay and/or in vivo systemic administration in an animal model of inflammation. The surface expression screen involved fluorophore-conjugated antibodies to the respective markers. Following pretreatment with the test compounds, samples of cells were incubated with the labeled antibodies for detection of surface marker expression and change relative to a reference level of untreated cells or negative control samples or values. Cells were pretreated with a concentration (3 μM) of each small molecule compound for 24 hours, followed by incubation with a fluorophore-conjugated anti-marker antibody to detect expression on MSC surface. Surface expression levels of marker ligands were then evaluated by laser-scanning fluorescence microplate cytometer. […] Cell viability in response to compounds was also tested to assess whether molecules have toxicity after 24 hours of pretreatment. Testing was performed on two different huMSC sources representing cells from different donors.
Further details of the screening approach are provided as follows. A unique single batch of bone marrow-derived MSC cells was prepared for the entire screening campaign by cell amplification using CellStack flasks and freezing in separate vials at passage P5. […] For each run, vials were thawed and cells directly seeded on 384-well plates at 3,000 cells per well in MSCGM medium. Following an overnight incubation, cells were treated with the indicated concentrations of compounds for 24 hours. Cells were washed in PBS, 3% BSA and incubated for one hour with PE-CY5-conjugated anti-CD11a monoclonal antibody (clone HI111). Expression of CD11a at the cell surface was detected using the Acumen Explorer, a laser-scanning fluorescence microplate cytometer after two PBS washings. HL-60 cells seeded at 10,000 cells per well and treated with 100 nM phorbol 12-myristate 13-acetate (PMA) for 24 h to induce cell adhesion were used as a positive control in each 384-well plate. Positive compounds were counter-screened for their auto-fluorescence by measuring the signal in the absence of antibody.
A single batch of bone marrow-derived MSC was prepared for the entire screening campaign by cell amplification using CellStack flasks and freezing in separate vials at passage P5. […] For each run, vials were thawed and cells directly seeded on 384-well plates at 3,000 cells per well in MSCGM medium. Following an overnight incubation, cells were pretreated with a low (0.1 μM) and high (3 μM) concentration of the compounds for 24 h. 9,000 cpds were tested in 112 assay plates, each 384-well plate contained 320 cpds (from column 5 to 24), one column for Max (Column2, HL60 cells) and one column for Min (Column4, MSC cells). Cells were washed in PBS, 3% BSA and incubated for one hour with PE-CY5-conjugated anti-CD11a monoclonal Ab (BD Biosciences). Expression of CD11a at the cell surface was detected after two PBS washes using the Acumen Explorer equipment, a laser-scanning fluorescence microplate cytometer. HL-60 cells (seeded at 10,000 cells per well and treated with 100 nM phorbol 12-myristate 13-acetate (PMA) for 24 h to induce cell adhesion) were used as a positive control in each 384-well plate. Positive compounds were counter-screened for their auto-fluorescence by measuring the signal in the absence of Ab. Shown in FIG. 4 is the global screening data. Using the Max, Min columns, we have calculated Max/Min ratio generated with CD11a Ab for each assay plate (signal/background ration in green columns was calculated for each of the 112 assay plates). […]

[2] = test system: human mesenchymal stem cells; test: In vitro functional firm adhesion assay of cells (Table 3, coating not stated); assay type: cell-based; parameters: key to Result, in vitro Firm Adhesion: NA = negative activity result; A = positive activity result; settings: for Result, in vitro Firm Adhesion: pretreated huMSCs; for Firm adhesion, Percent increase: relative to untreated and/or negative control MSCs
Experimental: (§1) Cell adhesion experiments were performed using Bioflux1000 (FluxionBio), allowing accurate control over shear flow. A special 48-well plate was used, in which a microfluidic channel (350 μm×70 μm) connects each pair of adjacent wells (termed inlet and outlet wells). The plate was placed under vacuum and the channels were coated from the inlet with recombinant human E-selectin (5 μg/mL) or ICAM-1 (5 μg/mL) and incubated at 37° C. for 1 h. Prior to introducing the cells into the channel, a wash with PBS−/− from the outlet well was performed for 5 min. Compound-pretreated MSCs were introduced into the channel, followed by attachment period of 2 minutes (no flow applied during the attachment period). Attached cells were then subjected to increasing shear flow, ranging from 0.25 dynes/cm^2 for up to 10 dynes/cm^2. Images were acquired using the Montage software and cell adhesion to the coated channels following subjection to shear flow was examined. See also disclosure elsewhere herein.
1. Obtain preferred channel coating (protein/cell monolayer). 2. Prepare cell suspension (same concentrations detailed above for different cell types). 3. Add 50 μl of cell suspension to outlet well. 4. Introduce cells into channel by applying shear force of 2 dynes/cm^2 (cells should be observed within 10-15 sec flowing from outlet to inlet). 5. Once cells are observed in the channel, stop the flow and allow the introduced cells to sit for different time periods ranging from 30 seconds to 5 minutes. 6. Following this settling period, apply shear force starting from 0.5 dynes/cm^2 up to 10 dynes/cm^2 and acquire videos using stream acquisition. 7. Cell quantification is then performed using the Montage software—percentage of cells adhered, rolled or washed away after applying shear flow should be quantified.

[3] = test system: LPS-induced inflamed mouse ear; test: In vivo MSC homing to LPS-induced inflamed ear after systemic infusion, intravital microscopy; parameters: key to In vivo functional assay (homing): NA = negative activity result; A = positive activity result; settings: for Increase of MSC homing to inflamed ear (%): relative to untreated cells
Experimental: C57BL/6 mice (Charles River Laboratories, Wilmington, Mass.) were anesthetized with ketamine/xylazine and their ears shaved 24 h prior to cell infusion. To induce an inflammatory response, 30 μg of E. coli lipopolysaccharide (LPS, Sigma, St. Louis, Mo.) in 50 μL saline was injected into the pinna of the left ear, with 50 μL 0.9% saline injected into the right ear as a control. For in vivo dye sensitivity validation, 1×10e6 cells of each stain were suspended in 150 μL PBS (pH 7.4) and injected by retro-orbital vein infusion.
To evaluate the minimum number of cells needed for a reproducible response, each mouse (n=4) received a range of cell doses (10,000, 50,000, 100,000, or 500,000) each of cells stained with Dil or DiD with a dye switch (i.e., dyes used for experimental and control cells were alternated to prevent bias based on the dyes that were used). To evaluate the impact of small molecule hit pre-treatment on MSC homing to the inflamed ear, MSCs were incubated with 3 μM of the small molecule hit or 0.1% DMSO as a control for 24 h before staining and in vivo administration. To highlight the vasculature, 50 μL of 10 mg/mL FITC-dextran ([…]; Sigma, St. Louis, Mo.) was injected retro-orbitally prior to imaging.
In vitro staining and in vivo homing of stained MSCs to the skin was imaged noninvasively in real time using a custom-built video-rate laser-scanning confocal microscope designed specifically for live animal imaging. For in vivo imaging, the mouse ear was positioned under a coverslip with methylcellulose gel and images acquired at 30 frames per second at a depth up to 200 μm using a 60×1.0NA water immersion objective lens (Olympus, Center Valley, Pa.). DiO labeled MSCs were excited with a 491 nm continuous wave (CW) laser (Cobalt, Stockholm, Sweden), and detected through a 520±20 nm bandpass filter (Semrock, Inc., Rochester, N.Y.). Dil labeled MSCs were excited with a 561 nm CW laser (Coherent, Inc., Santa Clara, Calif.) and detected through a 593 nm±40 nm filter (Omega Optical, Brattleboro, Vt.). DiD labeled MSCs were excited with a 635 nm CW laser (Coherent, Inc., Santa Clara, Calif.) and detected through a 695 nm±27.5 nm band pass filter (Omega Optical, Brattleboro, Vt.). DiR labeled MSCs were excited using a femtosecond Ti:Sapphire Maitai source for single photon excitation at 750 nm (Spectra Physics, Santa Clara, Calif.) and collected through a 785 nm±31 nm band pass filter (Omega Optical, Brattleboro, Vt.).
For quantification, the average number of cells in 20 representative imaging locations across the inflamed region was counted in each mouse. Cells were defined as having a diameter from 10-30 μm to eliminate debris and clumps from analysis, and a primary channel intensity greater than 2 to eliminate autofluorescent events. The average relative detection sensitivity (ratio of Dil/DiD counts) determined in the overall dye efficiency experiments were used to scale the counts for DiD stained cells. […] For multiple comparisons, Tukey's HSD test was used. Error bars in graphs represent standard error, and statistical significance is denoted by * p<0.05.

[4] = test system: CD11a surface expression on MSCs; test: Flow cytometry of CD11a surface expression on MSCs (FITC-CD11a Ab); assay type: cell-based, human; settings: 3 μM for 24 h
Experimental: MSCs were pretreated with DMSO vehicle control (DMSO-MSC, 0.1%) or ruboxistaurin (Rub-MSC, 3 μM) for 24 h and CD11a expression levels were assessed via flow cytometry (cells were stained with either FITC-CD11a Ab or isotype control, representative data from n=3 independent experiments).

[5] = test system: MSC firm adhesion to ICAM-1-coated surface; test: ICAM-1 firm adhesion assay under shear flow, with antibody blocking; assay type: cell-based, human; settings: 3 μM for 24 h
Experimental: as §1
Pre-confluent MSCs were incubated for 24 hours with the indicated small molecules (3 μM). MSCs were than detached, washed and incubated for 30 minutes with an antibody reagent. The following antibodies are used: anti-human CD11a (clone: HI111), anti-human CD90 (clone: MAB2067), mouse anti-human CD11a (clone: TS1/22), and mouse IgG1 isotype control. Cells were then introduced into the channel and given 2 minutes to adhere before being subjected to increasing shear flow for a firm adhesion assay on a microfluidic channel coated with E-selectin or ICAM-1.

Compound | EC50 ([1]; Homo sapiens) | Cell surface ligand CD11a (induction of expression) [1] | Firm adhesion, Percent increase [2] | other results
CN(C)CC1CCn2c(c(C3=C(c4cn(C)c5ccccc45)C(=O)NC3=O)c3ccccc32)C1 (stereo not shown) [Compound 1933, 3-(8-dimethylaminomethyl-6,7,8,9-tetrahydro-pyrido[1,2-a]indol-10-yl)-4-(1-methyl-1H-indol-3-yl)-pyrrole-2,5-dione hydrochloride] | 2.49e-05 M | A | 75% | Result, in vitro Firm Adhesion [2]: A; Increase of MSC homing to inflamed ear (%) [3]: <10%
CN1C(=O)C(c2c[nH]c3ccccc23)=C(c2cn(C)c3ccccc23)C1=O [Compound 1905, 3-(1H-indol-3-yl)-1-methyl-4-(1-methyl-1H-indol-3-yl)-pyrrole-2,5-dione] | 1.68e-05 M | – | – | –
CN1CCCC1CCn1cc(C2=C(c3c[nH]c4ccccc34)C(=O)NC2=O)c2ccccc21 (stereo not shown) [Compound 1928, 3-(1H-indol-3-yl)-4-{1-[2-(1-methyl-pyrrolidin-2-yl)-ethyl]-1H-indol-3-yl}-pyrrole-2,5-dione] | – | A | – | –
Cn1cc(C2=C(c3cn(C)c4ccccc34)C(=O)NC2=O)c2ccccc21 [Compound 1912, 3,4-bis-(1-methyl-1H-indol-3-yl)-pyrrole-2,5-dione] | – | A | – | –
CN(C)CCCn1cc(C2=C(c3c[nH]c4ccccc34)C(=O)NC2=O)c2ccccc21 [Compound 1934, 3-[1-(3-dimethylamino-propyl)-1H-indol-3-yl]-4-(1H-indol-3-yl)-pyrrole-2,5-dione] | – | A | – | –
Cn1cc(C2=C(c3c4n(c5ccccc35)CCC(CN)C4)C(=O)NC2=O)c2ccccc21 (stereo not shown) [Compound 1919, 3-(8-aminomethyl-6,7,8,9-tetrahydro-pyrido[1,2-a]indol-10-yl)-4-(1-methyl-1H-indol-3-yl)-pyrrole-2,5-dione] | – | A | 81% | EC50 [1]: 2.75e-06 M; Result, in vitro Firm Adhesion [2]: A; Increase of MSC homing to inflamed ear (%) [3]: 45%; In vivo functional assay (homing) ([3]; systemic administration of pretreated huMSCs): A
O=C1C(c2c[nH]c3ccccc23)=C(c2c[nH]c3ccccc23)C(=O)N1Cc1ccccc1 [Compound 1921, 1-benzyl-3,4-bis-(1H-indol-3-yl)-pyrrole-2,5-dione] | 1.75e-05 M | A | – | –

More lines, main results first:

EC50 ([1]; Homo sapiens) | Compound | Cell surface ligand CD11a (induction of expression) [1] | Firm adhesion, Percent increase [2] | other results
3.19e-06 M | Cn1cc(C2=C(c3cn(C4CCN(Cc5ccccn5)CC4)c4ccccc34)C(=O)NC2=O)c2ccccc21 [Compound 1906, 3-(1-methyl-1H-indol-3-yl)-4-[1-(1-pyridin-2-ylmethyl-piperidin-4-yl)-1H-indol-3-yl]-pyrrole-2,5-dione, reference compound] | – | – | –
> 3e-05 M | CN(C)C[C@@H]1CCn2cc(c3ccccc32)C2=C(C(=O)NC2=O)c2cn(c3ccccc23)CCO1 [Ruboxistaurin, ruboxistaurin, reference compound] | – | 0% (negative response) | CD11a surface expression on MSCs [4]: did not increase; also recorded: does not upregulate; MSC firm adhesion to ICAM-1-coated substrates, result in words [5]: did not improve
